Results from patent US4189426A, “Recombinant hormonal compositions and method” (Hoffmann-La Roche, Inc., priority 1978, dated 1980).
No end group written: not given here.

What was measured:
[1] = conformational, immunological and biological activity of Example 8 and 9 recombinants compared with native hormone; conditions: Examples 8 and 9, present tense, no data
[2] = Birk and Li, Proc. Natl. Acad. Sci. U.S.A. 75(5), 2155 (1978); cited from earlier work
antiserum to prolactin = test: gel double-diffusion technique of Ouchterlony; assay type: binding
Procedure: Exclusion chromatography of the purified fragments or the recombinant was performed on a Sephadex G-100 column (1.5×60 cm; V0 =35 ml) in 10 mM NH4 HCO3 (pH 8.4) at 21°. Circular dichroism (CD) spectra were obtained by a spectropolarimeter (Cary model 60) equipped with a circular dichroism attachment (model 6002). Microcomplement fixation was performed with the guinea pig antiserum to ovine prolactin. The gel double-diffusion technique of Ouchterlony was carried out with 1% agar in 10 mM phosphate buffer (pH 7.5). The prolactin activity was estimated by the local crop-sac assay in the pigeon.

pigeon crop-sac = test: local crop-sac assay in the pigeon (prolactin / lactogenic activity); assay type: in vivo; conditions: Table 10; total dose 120 μg; mean ± SEM, number of birds in parentheses
Procedure: The growth-promoting activity of PL-HGH, the unpurified recombinant of Example 1 (fraction IV), [Cys(Cam)^53 -HGH-(1-134)], [Cys(Cam)^165, 182, 189 -HGH-(141-191)] and saline control were determined by the rat tibia test of Greenspan et al, Endocrinology 45, 455 (1949) and by the local crop-sac assay in the pigeon according to Lyons, Proc. Soc. Exp. Biol. 35, 645 (1937) and Nicoll, Endocrinology 80, 641 (1967). Amino acid compositions of acid and carboxypeptidase hydrolysates were determined in an automatic amino acid analyzer (model 120B, Beckman Instruments). For the analysis of tryptophan, the methanesulfonic acid hydrolysates were used. Amino-terminal residue and sequence analyses were preformed by the dansyl-Edman procedure. Isoelectric focusing was carried out in 8 M urea. Prolactin activity was estimated by the pigeon crop-sac assay. Microcomplement fixation experiments were performed with rabbit antisera to HCS. The gel-double-diffusion technique of Ouchterlony was done using 1% agar in 0.01 M phosphate buffer of pH 7.5. Exclusion chromatography of the purified fragments or the recombinant was performed on a Sephadex G-100 column (1.5×60 cm; V0 =35 ml) in 10 mM NH4 HCO3 (pH 8.4) at 21°. Circular dichroism (CD) spectra were obtained by a spectropolarimeter (Cary model 60) equipped with a circular dichroism attachment (model 6002). Microcomplement fixation was performed with the guinea pig antiserum to ovine prolactin. The gel double-diffusion technique of Ouchterlony was carried out with 1% agar in 10 mM phosphate buffer (pH 7.5). The prolactin activity was estimated by the local crop-sac assay in the pigeon.

Row | Substance | conformational, immunological and biological activity, in words [1] | biological activity, in words [2] | precipitin line (antiserum to prolactin) | Response (dry mucosal weight) (pigeon crop-sac) [mg]
1 | [Cys(Cam)^53 ]-HGH-(1-134)+(Lys^135,136,138, Glu^137,139, Nle^170, Ala^165,182,189)-HGH-(135-191) | analogous conformational, immunological and biological activity as native HGH | – | – | –
2 | PRL-(1-53): NH2-terminal portion, residues 1-53, of ovine prolactin from fibrinolysin digestion (TPVCPNGPGNCQVSLRDLFDRAVMVSHYIHNLSSEMFNEFDKRYAQGKGFITM; ends and bridges not checked; cysteine pairing not given here; UniProt P01240 31-83, looked up, fragment) | – | inactive | neither fragment gave a precipitin line | 10.1 ± 2.6
